# What was measured:
# Caspase-6 [1] = target: T1, Caspase-6 (Homo sapiens, UniProt P55212); assay: Inhibitory concentration required against caspase-6
# T1 sequence (P55212 whole entry): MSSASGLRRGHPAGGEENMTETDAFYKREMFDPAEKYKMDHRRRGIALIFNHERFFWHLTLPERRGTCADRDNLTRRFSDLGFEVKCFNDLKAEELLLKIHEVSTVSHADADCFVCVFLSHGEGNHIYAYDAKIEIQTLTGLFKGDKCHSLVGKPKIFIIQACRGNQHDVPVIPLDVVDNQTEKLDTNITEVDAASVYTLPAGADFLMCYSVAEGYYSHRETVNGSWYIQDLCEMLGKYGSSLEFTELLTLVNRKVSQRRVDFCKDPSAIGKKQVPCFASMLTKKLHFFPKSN
# Caspase-8 [2] = target: T2, Caspase-8 (Homo sapiens, UniProt Q14790); assay: Inhibitory concentration of compound required against Caspase-8 compared to acylated dipeptides
# T2 sequence (Q14790 217-374 limits assumed): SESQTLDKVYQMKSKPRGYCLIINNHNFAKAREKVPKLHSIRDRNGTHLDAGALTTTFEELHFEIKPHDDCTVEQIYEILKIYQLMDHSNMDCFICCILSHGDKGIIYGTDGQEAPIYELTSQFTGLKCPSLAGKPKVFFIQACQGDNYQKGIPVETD
# T2 sequence (Q14790 385-479 limits assumed): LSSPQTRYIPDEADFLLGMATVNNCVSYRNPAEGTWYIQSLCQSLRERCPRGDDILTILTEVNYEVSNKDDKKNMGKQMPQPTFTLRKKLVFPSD
# Caspase-7 [3] = target: T3, Caspase-7 (Homo sapiens, UniProt P55210); assay: Inhibitory concentration against caspase-7
# T3 sequence (P55210 whole entry): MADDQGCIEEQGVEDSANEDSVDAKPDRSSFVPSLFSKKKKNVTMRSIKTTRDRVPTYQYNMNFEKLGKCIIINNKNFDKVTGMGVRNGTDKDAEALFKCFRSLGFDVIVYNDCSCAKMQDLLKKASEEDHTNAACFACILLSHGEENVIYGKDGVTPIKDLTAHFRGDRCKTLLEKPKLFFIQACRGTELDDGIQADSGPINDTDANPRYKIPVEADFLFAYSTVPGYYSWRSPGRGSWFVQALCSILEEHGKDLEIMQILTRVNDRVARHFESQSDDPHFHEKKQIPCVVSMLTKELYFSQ
# Caspase-6 [4] = target: T1, Caspase-6; assay: Inhibitory concentration of compound required against Caspase-6 compared to acylated dipeptides
# Caspase-1 (Mus musculus) [5] = target: Caspase-1 (Mus musculus) (UniProt P29452); assay: Inhibitory concentration of compound required against Caspase-1 compared to acylated dipeptides
# Sequence of Caspase-1 (Mus musculus) (P29452 whole entry, looked up): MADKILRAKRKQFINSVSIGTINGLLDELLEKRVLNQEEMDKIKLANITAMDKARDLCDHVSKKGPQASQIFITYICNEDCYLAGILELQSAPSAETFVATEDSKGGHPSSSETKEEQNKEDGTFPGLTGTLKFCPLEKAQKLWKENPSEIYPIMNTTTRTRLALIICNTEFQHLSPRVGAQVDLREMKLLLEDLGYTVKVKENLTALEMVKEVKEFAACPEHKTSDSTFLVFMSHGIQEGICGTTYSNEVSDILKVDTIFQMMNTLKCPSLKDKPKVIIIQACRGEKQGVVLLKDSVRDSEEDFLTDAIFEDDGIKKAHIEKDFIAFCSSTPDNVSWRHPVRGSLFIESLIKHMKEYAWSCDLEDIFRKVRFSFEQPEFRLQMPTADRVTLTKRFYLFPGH
# Caspase-1 (Mus musculus) [6] = target: Caspase-1 (Mus musculus) (UniProt P29452)
# Caspase-3 [7] = target: T4, Caspase-3 (Homo sapiens, UniProt P42574); assay: Inhibitory concentration of compound required against Caspase-3 compared to acylated dipeptides
# T4 sequence (P42574 whole entry): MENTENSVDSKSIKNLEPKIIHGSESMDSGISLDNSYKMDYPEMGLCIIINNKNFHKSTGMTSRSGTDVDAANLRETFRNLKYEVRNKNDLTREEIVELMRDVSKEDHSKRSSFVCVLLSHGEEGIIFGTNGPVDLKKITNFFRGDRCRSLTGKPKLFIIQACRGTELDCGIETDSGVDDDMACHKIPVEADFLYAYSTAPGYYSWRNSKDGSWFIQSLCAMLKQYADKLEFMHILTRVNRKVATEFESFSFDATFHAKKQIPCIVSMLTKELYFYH
# Caspase-7 [8] = target: T3, Caspase-7; assay: Inhibitory concentration of compound required against Caspase-7 compared to acylated dipeptides
# Caspase-8 [9] = target: T2, Caspase-8; assay: Inhibitory concentration against caspase-8
# Caspase-3 [10] = target: T4, Caspase-3; assay: Inhibitory concentration against caspase-3
Compound,IC50 (Caspase-6 [1]) [µM],IC50 (Caspase-8 [2]) [µM],IC50 (Caspase-7 [3]) [µM],IC50 (Caspase-6 [4]) [µM],IC50 (Caspase-1 (Mus musculus) [5]) [µM],IC50 (Caspase-1 (Mus musculus) [6]) [µM],IC50 (Caspase-3 [7]) [µM],IC50 (Caspase-7 [8]) [µM],IC50 (Caspase-8 [9]) [µM],IC50 (Caspase-3 [10]) [µM]
CC(C)C[C@H](NC(=O)[C@H](CCC(=O)O)NC(=O)OCc1ccccc1)C(=O)N[C@H]1CC(=O)OC1O (some centres undefined),–,0.03,–,–,0.0065,–,0.0023,0.01,–,–
CC(C)C[C@H](NC(=O)[C@H](Cc1ccccc1)NC(=O)OCc1ccccc1)C(=O)N[C@H]1CC(=O)OC1O (some centres undefined),–,8.7,–,2.53,0.043,–,0.137,0.68,–,–
CC(C)C[C@@H](NC(=O)OCc1ccccc1)C(=O)C[C@H]1CC(=O)OC1O (some centres undefined),14,–,21.9,–,–,18.8,–,–,50,3.47
CC(=O)N[C@@H](C(=O)O)C(=O)N[C@@H](CCC(=O)O)C(=O)N[C@H](C(=O)N[C@H]1CC(=O)OC1O)C(C)C (some centres undefined),–,0.08,–,0.01,0.05,–,0.0035,0.01,–,–
CC(C)C[C@H](NC(=O)Cc1ccc(-c2ccccc2)cc1)C(=O)N[C@H]1CC(=O)OC1O (some centres undefined),> 10,–,–,–,–,7.43,–,> 10,> 10,5.06

# Now from value to molecule:
IC50 (Caspase-6 [1]) [µM],IC50 (Caspase-8 [2]) [µM],IC50 (Caspase-7 [3]) [µM],IC50 (Caspase-6 [4]) [µM],IC50 (Caspase-1 (Mus musculus) [5]) [µM],IC50 (Caspase-1 (Mus musculus) [6]) [µM],IC50 (Caspase-3 [7]) [µM],IC50 (Caspase-7 [8]) [µM],IC50 (Caspase-8 [9]) [µM],IC50 (Caspase-3 [10]) [µM],Compound
18.6,10,8.87,18.6,10,10,0.94,8.87,> 10,0.944,CC(C)C[C@H](NC(=O)COc1ccc2ccccc2c1)C(=O)N[C@H]1CC(=O)OC1O (some centres undefined)
21.4,–,3.61,–,–,0.141,–,–,3.04,0.357,CC(C)C[C@H](NC(=O)COc1c(Cl)cc(Cl)c2ccccc12)C(=O)N[C@H]1CC(=O)OC1O (some centres undefined)
20.5,–,12,–,–,1.9,–,–,7.53,0.763,CC(C)C[C@H](NC(=O)COc1ccc(-c2ccccc2)cc1)C(=O)N[C@H]1CC(=O)OC1O (some centres undefined)
32.4,–,4.16,–,–,0.843,–,–,4.14,0.375,Cc1ccc2ccccc2c1OCC(=O)N[C@@H](CC(C)C)C(=O)N[C@H]1CC(=O)OC1O (some centres undefined)

# Source: ChEMBL document CHEMBL1134914, “Acyl dipeptides as reversible caspase inhibitors. Part 1: initial lead optimization” (Bioorg Med Chem Lett, 2002)
